ChEMBL document CHEMBL4184238, “Synthesis and biological evaluation of a series of novel pyridinecarboxamides as potential multi-receptor antipsychotic drugs” (Bioorg Med Chem Lett, 2018)
Activity calls are given as the source filed them. The calls are words filed in the database; no cut-off is given here.

What was measured:
[1] = molecular target: D(2) dopamine receptor (Homo sapiens, UniProt P14416); test: Antagonistic activity at human dopamine D2 receptor measured after 60 mins by Lance Ultra cAMP assay; type: functional
[2] = molecular target: 5-hydroxytryptamine receptor 2A (Homo sapiens, UniProt P28223); test: Antagonistic activity at human 5-HT2A receptor assessed as calcium flux after 10 mins by FLIPR assay; type: functional
[3] = molecular target: T1, 5-hydroxytryptamine receptor 1A (Homo sapiens, UniProt P08908); test: Agonistic activity at human 5-HT1A receptor measured after 60 mins by Ultra Lance cAMP assay; type: functional
T1 sequence (P08908 whole entry): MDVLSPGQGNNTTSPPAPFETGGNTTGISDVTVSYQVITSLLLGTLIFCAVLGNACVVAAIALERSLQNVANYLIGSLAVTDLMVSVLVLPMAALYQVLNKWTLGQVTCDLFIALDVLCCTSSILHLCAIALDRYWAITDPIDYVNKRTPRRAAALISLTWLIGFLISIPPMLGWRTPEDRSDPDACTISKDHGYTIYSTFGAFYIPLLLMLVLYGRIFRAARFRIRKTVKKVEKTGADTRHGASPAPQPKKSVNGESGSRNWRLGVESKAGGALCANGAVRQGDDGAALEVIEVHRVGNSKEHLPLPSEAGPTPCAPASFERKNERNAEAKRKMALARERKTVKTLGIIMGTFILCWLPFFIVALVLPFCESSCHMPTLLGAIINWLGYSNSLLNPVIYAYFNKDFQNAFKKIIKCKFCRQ

[4] = Stability in human liver microsomes assessed as parent compound remaining level at 2 uM in presence of NADPH incubated for 30 mins by LC-MS/MS method; type: ADME, microsome; conditions: read-out: Stability
[5] = test system: Mus musculus; test: Antipsychotic-like activity in ICR mouse assessed as inhibition of PCP-induced hyperlocomotion at 3 mg/kg, ig followed by animal habituation for 10 mins before 60 mins measurement period; type: functional, organism-based
[6] = molecular target: T2, Alpha-1A adrenergic receptor (Homo sapiens, UniProt P35348); test: Antagonistic activity at alpha-1A adrenergic receptor (unknown origin) after 10 mins by FLIPR assay; type: functional
T2 sequence (P35348 whole entry): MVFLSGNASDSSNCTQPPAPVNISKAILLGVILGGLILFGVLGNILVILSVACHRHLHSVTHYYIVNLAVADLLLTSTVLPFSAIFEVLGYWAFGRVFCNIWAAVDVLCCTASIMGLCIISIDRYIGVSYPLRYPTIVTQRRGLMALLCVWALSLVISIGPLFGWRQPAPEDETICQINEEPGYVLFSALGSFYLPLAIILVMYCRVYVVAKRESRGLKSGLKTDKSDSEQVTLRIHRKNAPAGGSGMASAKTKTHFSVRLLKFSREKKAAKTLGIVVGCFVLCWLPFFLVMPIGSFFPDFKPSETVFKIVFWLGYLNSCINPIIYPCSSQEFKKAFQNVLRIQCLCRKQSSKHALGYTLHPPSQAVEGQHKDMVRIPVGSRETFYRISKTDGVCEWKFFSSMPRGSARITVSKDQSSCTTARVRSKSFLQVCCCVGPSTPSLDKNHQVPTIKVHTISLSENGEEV

[7] = molecular target: Histamine H1 receptor (Homo sapiens, UniProt P35367); test: Antagonistic activity at histamine 1 receptor (unknown origin) after 10 mins by FLIPR assay; type: functional
[8] = molecular target: T3, 5-hydroxytryptamine receptor 2C (Homo sapiens, UniProt P28335); test: Antagonistic activity at 5-HT2c receptor (unknown origin) after 10 mins by FLIPR assay; type: functional
T3 sequence (P28335 whole entry): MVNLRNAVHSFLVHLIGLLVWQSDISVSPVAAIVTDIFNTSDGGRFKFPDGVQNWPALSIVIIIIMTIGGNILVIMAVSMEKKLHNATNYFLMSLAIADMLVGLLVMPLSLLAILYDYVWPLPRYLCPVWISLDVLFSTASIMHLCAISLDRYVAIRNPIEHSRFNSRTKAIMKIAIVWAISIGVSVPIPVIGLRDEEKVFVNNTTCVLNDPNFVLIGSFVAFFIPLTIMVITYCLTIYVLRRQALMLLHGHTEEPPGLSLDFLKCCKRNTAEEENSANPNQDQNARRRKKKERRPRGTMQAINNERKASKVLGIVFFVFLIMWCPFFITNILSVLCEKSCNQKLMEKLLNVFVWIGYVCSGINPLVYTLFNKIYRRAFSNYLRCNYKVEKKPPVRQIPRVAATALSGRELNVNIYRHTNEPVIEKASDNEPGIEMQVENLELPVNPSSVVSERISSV

[9] = test system: Mus musculus; test: Antipsychotic-like activity in ICR mouse assessed as inhibition of PCP-induced hyperlocomotion at 0.3 to 3 mg/kg, ig followed by animal habituation for 10 mins before 60 mins measurement period; type: functional, organism-based

Histamine H1 receptor, sequence (P35367 whole entry): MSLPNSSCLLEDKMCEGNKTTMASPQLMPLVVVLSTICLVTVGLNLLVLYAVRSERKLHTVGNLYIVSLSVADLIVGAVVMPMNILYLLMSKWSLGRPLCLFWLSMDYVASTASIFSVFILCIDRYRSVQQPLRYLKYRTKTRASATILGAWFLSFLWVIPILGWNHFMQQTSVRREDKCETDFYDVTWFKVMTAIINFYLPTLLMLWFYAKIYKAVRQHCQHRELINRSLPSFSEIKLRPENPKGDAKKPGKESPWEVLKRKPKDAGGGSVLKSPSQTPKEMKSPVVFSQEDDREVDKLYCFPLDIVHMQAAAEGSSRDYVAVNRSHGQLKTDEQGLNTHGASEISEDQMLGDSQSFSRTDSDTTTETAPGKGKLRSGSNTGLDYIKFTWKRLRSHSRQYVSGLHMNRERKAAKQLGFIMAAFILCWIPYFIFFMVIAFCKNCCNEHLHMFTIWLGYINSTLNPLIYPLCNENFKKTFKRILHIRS
5-hydroxytryptamine receptor 2A, sequence (P28223 whole entry): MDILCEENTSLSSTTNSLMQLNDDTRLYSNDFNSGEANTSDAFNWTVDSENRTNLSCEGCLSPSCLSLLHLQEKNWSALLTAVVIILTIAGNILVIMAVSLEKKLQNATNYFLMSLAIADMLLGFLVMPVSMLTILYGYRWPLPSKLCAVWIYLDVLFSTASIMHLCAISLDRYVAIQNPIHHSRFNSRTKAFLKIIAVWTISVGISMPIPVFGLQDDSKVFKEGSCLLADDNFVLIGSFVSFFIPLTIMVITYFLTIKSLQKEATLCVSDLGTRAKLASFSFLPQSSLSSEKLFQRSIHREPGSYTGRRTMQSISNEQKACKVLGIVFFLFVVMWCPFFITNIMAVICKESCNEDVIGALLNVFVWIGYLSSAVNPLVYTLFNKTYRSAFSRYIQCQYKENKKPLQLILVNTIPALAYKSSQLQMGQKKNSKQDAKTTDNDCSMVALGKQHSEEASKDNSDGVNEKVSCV
D(2) dopamine receptor, sequence (P14416 whole entry): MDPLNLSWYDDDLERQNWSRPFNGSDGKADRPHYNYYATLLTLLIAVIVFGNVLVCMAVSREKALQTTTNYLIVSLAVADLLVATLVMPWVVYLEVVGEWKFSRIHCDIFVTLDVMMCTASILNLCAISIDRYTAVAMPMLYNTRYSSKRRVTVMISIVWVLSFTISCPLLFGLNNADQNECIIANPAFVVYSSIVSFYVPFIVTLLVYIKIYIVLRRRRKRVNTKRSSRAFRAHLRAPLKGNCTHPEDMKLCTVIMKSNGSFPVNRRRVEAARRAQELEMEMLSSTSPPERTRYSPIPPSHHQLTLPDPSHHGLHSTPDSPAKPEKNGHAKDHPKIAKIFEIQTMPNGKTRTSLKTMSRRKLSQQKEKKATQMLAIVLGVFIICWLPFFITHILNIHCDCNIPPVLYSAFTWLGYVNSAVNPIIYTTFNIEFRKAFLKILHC

| IC50 [1] | IC50 [2] | EC50 [3] | remaining at 0.5 h, 2 µM [4] | IC50 [6] | IC50 [7] | IC50 [8] | SMILES | Activity [5] | Activity [9] |
| --- | --- | --- | --- | --- | --- | --- | --- | --- | --- |
| 299 nM | 62.4 nM | > 100000 nM |  |  |  |  | CNC(=O)c1ccnc(OCCCCN2CCC(c3noc4cc(F)ccc34)CC2)c1 |  |  |
|  |  |  | 25% |  |  |  | CNC(=O)c1cccc(OCCCCN2CCN(c3nsc4ccccc34)CC2)c1 |  |  |
|  |  |  |  |  |  |  | O=C1CCc2ccc(OCCCCN3CCN(c4cccc(Cl)c4Cl)CC3)cc2N1 | Active |  |
| 65.2 nM | 324 nM | 6.2 nM |  |  |  |  | O=C(NC1CC1)c1cc(OCCCCN2CCN(c3nsc4ccccc34)CC2)ccn1 |  |  |
| 8 nM | 64.9 nM | 0.7 nM |  |  |  |  | CNC(=O)c1cc(OCCCCN2CCN(c3cccc4sc(F)cc34)CC2)ccn1 |  |  |
| 11.4 nM | 113 nM | 2.2 nM | 65% | 71 nM | 923 nM | 70 nM | CNC(=O)c1cc(OCCCCN2CCN(c3nsc4ccccc34)CC2)ccn1 |  |  |
| 42.5 nM | 89.9 nM | > 100000 nM |  |  |  |  | O=C(NC1CC1)c1cncc(OCCCCN2CCC(c3noc4cc(F)ccc34)CC2)c1 |  |  |
| 37.6 nM | 95.5 nM | 17.6 nM |  |  |  |  | CCNC(=O)c1cc(OCCCCN2CCC(c3noc4cc(F)ccc34)CC2)ccn1 |  |  |
| 412 nM | 1280 nM | 117 nM |  |  |  |  | CNC(=O)c1cccc(OCCCCN2CCN(c3ccc4ccsc4c3)CC2)n1 |  |  |
| 86.1 nM | 106 nM | 11.3 nM |  |  |  |  | CNC(=O)c1cccc(OCCCCN2CCN(c3cccc4sccc34)CC2)n1 |  |  |
| 42.6 nM | 523 nM | 16.5 nM |  |  |  |  | NC(=O)c1cc(OCCCCN2CCN(c3nsc4ccccc34)CC2)ccn1 |  |  |
| 53.5 nM | 167 nM | 28.1 nM |  |  |  |  | O=C(NC1CC1)c1cc(OCCCCN2CCC(c3noc4cc(F)ccc34)CC2)ccn1 |  |  |
| 26.5 nM | 476 nM | 0.9 nM |  |  |  |  | CNC(=O)c1cc(OCCCCN2CCN(c3cccc(Cl)c3Cl)CC2)ccn1 |  |  |
| 51.7 nM | 53.9 nM | > 100000 nM |  |  |  |  | O=C(NC1CC1)c1ccnc(OCCCCN2CCC(c3noc4cc(F)ccc34)CC2)c1 |  |  |
| 51.1 nM | 910 nM | 23.6 nM |  |  |  |  | CNC(=O)c1cccc(OCCCCN2CCN(c3cccc(Cl)c3Cl)CC2)n1 |  |  |
|  |  |  | 97% |  |  |  | CNC(=O)c1cccc(OCCCCN2CCC(c3noc4cc(F)ccc34)CC2)c1 |  |  |
| 9.3 nM | 134 nM | > 100000 nM |  |  |  |  | CNC(=O)c1cccc(OCCCCN2CCC(c3noc4cc(F)ccc34)CC2)n1 |  |  |
| 65.5 nM | 67.5 nM | > 100000 nM |  |  |  |  | CCNC(=O)c1ccnc(OCCCCN2CCC(c3noc4cc(F)ccc34)CC2)c1 |  |  |
| 59 nM | 94.2 nM | > 100000 nM |  |  |  |  | CCNC(=O)c1cncc(OCCCCN2CCC(c3noc4cc(F)ccc34)CC2)c1 |  |  |
| 24 nM | 154 nM | 1.2 nM | 65% | 164 nM | 418 nM | 346 nM | CNC(=O)c1cc(OCCCCN2CCN(c3cccc4sccc34)CC2)ccn1 | Active | Dose-dependent effect |
| 59.8 nM | 247 nM | 9 nM | 98% | 11 nM | 4420 nM | 63 nM | CNC(=O)c1cc(OCCCCN2CCC(c3noc4cc(F)ccc34)CC2)ccn1 |  |  |
| 123 nM | 83.2 nM | > 100000 nM |  |  |  |  | CNC(=O)c1cncc(OCCCCN2CCC(c3noc4cc(F)ccc34)CC2)c1 |  |  |
